In patent US20040220115A1, “Medicinal compositions and their method of preparation” (priority 1999, published 2004):

Assays:
[1] = tested on: murine sarcoma 180; conditions: cited from earlier work
[2] = Degradation of stored BEC extract, solamargine and solasonine levels by HPLC; assay type: physicochemical; conditions: for % degradation estimated: four weeks storage under ambient conditions, estimated from the degradation study
From the text: A BEC extract was obtained from Solanum Sodomaeum according to conventional extraction procedures. The degradation of the BEC extract was estimated by measuring the change in solamargine and solasonine levels over time. Although degradation of BEC could also be measured by an increase in sugar levels, in practice HPLC analysis for solamargine and solasonine allowed a more quantative analysis to be conducted and was therefore chosen for this study.

[3] = tested on: human ovarian cancer cells; assay: Effect of washed and unwashed BEC on human ovarian cancer cells; assay type: cell-based
Procedure: The effect of washed and unwashed BEC or human ovarian cancer cells was compared. The washed and unwashed BEC were prepared as described for Example 8.
Cells (5×10^4) were transferred (200 μl chamber of a microscope slide (Lab Tek Miles Scientific). Controls received 50 μl HIFCS/TCM and experimental chambers 50 μl of solasodine glycosides (BEC) 1.5-3.8 μM/L, washed and unwashed after 7-h preincubation and incubated for a further 17 h and […] preincubation and incubated for a further 3h. Similarly, the cells were treated with the aglycone solasodine 19.4-96.8 μM/L. The cells were fixed and examined by the Papanicolaou method.

[4] = Time 0 years storage of BEC extract

Row | Compound | effect on S180 activity ([1]; similar concentrations of rhamnose in the absence of BEC) | Degradation (%) mean ± S.D. [2, 4] [%] | Degradation (%) mean ± S.D. ([2]; Time 0.5 years) [%] | Degradation (%) mean ± S.D. ([2]; Time 1 year) [%] | Degradation (%) mean ± S.D. ([2]; Time 2 years) [%] | Degradation (%) mean ± S.D. ([2]; Time 3 years) [%] | Degradation (%) mean ± S.D. ([2]; Time 4 years) [%] | Degradation (%) mean ± S.D. ([2]; Time 5 years) [%] | % degradation estimated [2] | % survival ([3]; 3 μg/mL) [%] | % survival ([3]; 6 μg/mL) [%] | % survival ([3]; 9 μg/ml) [%] | % survival ([3]; 12 μg/ml) [%] | % survival ([3]; 15 μg/ml) [%] | % survival ([3]; 18 μg/ml) [%] | % survival ([3]; 24 μg/ml) [%] | effect against tumor cells ([1]; administered at levels at which BEC is effective)
1 | C[C@H](O)[C@H](O)[C@@H](O)[C@@H](O)C=O [rhamnose] | no effect |  |  |  |  |  |  |  |  |  |  |  |  |  |  |  | 
2 | C[C@@H]1CC[C@@]2(NC1)O[C@H]1C[C@H]3[C@@H]4CC=C5C[C@@H](O[C@@H]6O[C@H](CO)[C@@H](O[C@@H]7O[C@@H](C)[C@H](O)[C@@H](O)[C@H]7O)[C@H](O)[C@H]6O[C@@H]6O[C@@H](C)[C@H](O)[C@@H](O)[C@H]6O)CC[C@]5(C)[C@H]4CC[C@]3(C)[C@H]1[C@@H]2C [Solamargine, (22R,25R)-spiro-5-en-3β-yl-α-L-rhamnopyranosyl-(1->2glu)-O-α-L-rhamnopyranosyl-(1->4glu)-β-D-gluco-pyranose] |  | 0 | 4 ± 4 | 8 ± 5 | 12 ± 7 | 15 ± 8 | 19 ± 10 | 22 ± 10 | less than 4% |  |  |  |  |  |  |  | 
3 | C[C@@H]1CC[C@@]2(NC1)O[C@H]1C[C@H]3[C@@H]4CC=C5C[C@@H](O)CC[C@]5(C)[C@H]4CC[C@]3(C)[C@H]1[C@@H]2C [Solasodine, solasodine] |  |  |  |  |  |  |  |  |  | 100 | 100 | 100 | 100 | 100 | 100 | 100 | ineffective
4 | C[C@@H]1CC[C@@]2(NC1)O[C@H]1C[C@H]3[C@@H]4CC=C5C[C@@H](O[C@@H]6O[C@H](CO)[C@H](O)[C@H](O[C@@H]7O[C@H](CO)[C@@H](O)[C@H](O)[C@H]7O)[C@H]6O[C@@H]6O[C@@H](C)[C@H](O)[C@@H](O)[C@H]6O)CC[C@]5(C)[C@H]4CC[C@]3(C)[C@H]1[C@@H]2C [Solasonine, (22R, 25R)-spiro-5-en-3β-yl-α-L-rhamnopyranosyl-(1->2gal)-O-β-D-glucopyranosyl-(1->3gal)-β-D-galactopyranose] |  | 0 | 5 ± 5 | 10 ± 5 | 15 ± 8 | 19 ± 9 | 21 ± 10 | 23 ± 11 | < 5% |  |  |  |  |  |  |  | 
